Test results reported in paper PMC12250624, “Anti-Amyloid Aggregation Effects of Gobaishi (Galla chinensis) and Its Active Constituents” (Molecules, 2025).

Biological target: T1, Aβ42 (amyloid-beta) (Homo sapiens, UniProt P05067)
T1 construct: gene APP; Aβ42
Experiment: ThT fibril aggregation assay, […] Aβ[…] h at […] °C
Type: biochemical

T1 sequence (P05067 672-713): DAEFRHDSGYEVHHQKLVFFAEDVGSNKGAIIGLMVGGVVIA

O=C(/C=C/c1ccc(O)c(O)c1)O[C@H](Cc1ccc(O)c(O)c1)C(=O)O [Rosmarinic acid]
EC50: 15 µM
